Data published in PMC8147656 (Journal of Personalized Medicine, 2021).
Read-outs that look alike come from different tables or passages of the source.

What was measured:
[1] = Population observational study of patients with T2D (GoDARTS): severe gliclazide-induced hypoglycemia; type: in vivo, human; conditions: gliclazide-treated cohort with genetic data (48 cases and 288 controls); OR (95% CI), p = 0.187
Text: We used the Scottish Ambulance Service data and the Accident and Emergency diagnosis records to identify severe cases of hypoglycemia in Tayside and Fife, Scotland. […] Logistic regression was used to analyze the effect of the CYP2C19 variants and co-treatment with PPIs on gliclazide-induced hypoglycemia. All analyses were adjusted for known clinical predictors of hypoglycemia, including age, sex, age of T2D diagnosis, body mass index, creatinine and HbA1c [53], as well as the overall number of medications used as a proxy for comorbidities [54]. The CYP2C19 phenotypes were assigned based on diplotypes in the same manner as in healthy volunteers. The analyses were performed using SAS 9.3 (SAS Institute Inc., Cary, NC, USA). Statistical significance was set at p < 0.05.

[2] = single oral gliclazide, healthy Chinese volunteers, cited from earlier work
[3] = cited from earlier work
Mrp2 = system: Mrp2; parameters: method as in PMID 18799822; conditions: cited from earlier work
CYP2C9 [4] = assay: CYP2C9-mediated metabolism (fm, intrinsic clearance); type: in vitro ADME, human; conditions: gliclazide; calculated from microsomal total intrinsic clearance [10], CYP abundances and fm [36]
Experimental: (§1) The full PBPK model was developed for gliclazide using a middle-out approach. The Vss was predicted by Simcyp Rodgers et al. + ion membrane permeability model. […] The intrinsic clearances per pmol of CYP enzymes were calculated using total intrinsic clearance measured in vitro in human liver microsomes, and fm values obtained from in vivo data. […] Considering the difference in abundance and activity of the transporter between liver and the transfected cell line, a relative activity factor (RAF) was optimized to fit the observed clinical data. Liver passive diffusion clearance (ClPD) of gliclazide was estimated based on experimental logD7.4 value.

CYP2C9 [5] = conditions: human liver microsomes, CYP selective inhibitors; cited from earlier work
CYP2C19 [6] = assay: CYP2C19-mediated metabolism (fm, intrinsic clearance); type: in vitro ADME, human
Experimental: (§2) Absorption was described by a first-order absorption model in line with previous studies. The steady-state volume of distribution (Vss) value was based on previous models.
as §1

OATP1B1 = conditions: cited from earlier work
[7] = gliclazide; ref Proks et al., 2018 [46]; cited from earlier work
[8] = Clinical trial on omeprazole-gliclazide interaction in healthy volunteers, CYP2C19 NM/RM/UM; type: in vivo, human; conditions: for AUC(0-t): male, human, serum, oral, 40 mg, gliclazide 40 mg tablet, current trial, geometric mean (95% CI), read-out: AUC0–24, observed
Text: Fifteen healthy volunteers (men, age 18–30 years, non-smokers) with CYP2C19 NM/RM/UM status were recruited. The exclusion criteria included: a medical history of hepatic, renal, gastrointestinal or hematologic disease or any acute or chronic disease; drug allergy to sulfonylureas or PPIs; history of drug abuse; abnormalities in physical examination, ECG or routine clinical laboratory tests (including fasting blood glucose concentration); medication use during the 14 days prior to and during the study period; grapefruit, grapefruit juice, alcohol, beverages or food containing methylxanthines use during the 72 h prior to and during the study period.
On day 5 of each admission period, after an overnight fast, the volunteers were admitted to the hospital. […] Drugs were given in a sitting position, at 8 AM. Volunteers were not permitted to lie down or sleep for the next 4 h after taking drugs, as well as to perform any strenuous activities for the next 24 h. In order to counteract the blood glucose-lowering action of gliclazide, volunteers received standardized meals: breakfast at 30 min after gliclazide intake, snacks after 2 and 3 h, a lunch (warm meal) after 4 h, a snack after 6 h, dinner after 8 h, and additional snacks at 10 h and 12 h after drugs administration. No other food and drink (with the exception of water) were allowed. For safety reasons, the volunteers were under direct medical supervision throughout the 24 h following drugs administration. Fast-acting carbohydrates, glucose solution for i.v. use and glucagon for intramuscular use were available in case of hypoglycemia.
Venous blood samples were collected on day 5 of each admission period before dosing (0 h) and 0.5, 1, 1.5, 2, 2.5, 3, 3.5, 4, 4.5, 5, 6, 8, 10, 12, 15 and 24 h after gliclazide administration. Serum samples for gliclazide quantification were separated within 30 min following each blood sample collection and stored at −80 °C until the analysis.
Serum gliclazide concentrations were quantified using a validated stable isotope dilution liquid chromatography-tandem mass spectrometry (LC-MS/MS) method. In brief, a total of 10 µL serum was added to 90 µL acetonitrile containing 100 ng/mL of d4-gliclazide and 0.1% formic acid. […] Gliclazide was quantitated by the triple quadrupole mass spectrometer in ESI positive ion mode. […] The limit of quantification was 3.1 ng/mL.
PK parameters were calculated in a noncompartmental analysis using PKSolver, a program for PK data analysis in Microsoft Excel. The area under the plasma gliclazide concentration-time curve (AUC) up to the last concentration measured (AUC0–t) was determined using the linear trapezoidal rule.
The main evaluated outcome was systemic exposure to gliclazide, expressed as AUC0–t. The geometric mean was calculated for AUC0–24. […]

[9] = In vitro dissolution testing under biorelevant media-change conditions; type: physicochemical; conditions: conditions without vs with omeprazole (gastric pH)
Experimental: In order to estimate the drug release rate in vivo and concomitant absorption profile, dissolution tests were performed under biorelevant media-change conditions (Table 3), using USP apparatus 2 (Erweka DT 800, Heusenstamm, Germany) at 37 ± 0.5 °C and rotational speed of 100 rpm. Withdrawn aliquots were filtered, diluted and analysed for gliclazide by UV spectrophotometry (UV-1700 spectrophotometer, Shimadzu, Japan). The absorbance obtained at 226 nm was corrected by subtracting the absorbance obtained at 290 nm, according to British Pharmacopeia. All measurements were performed in triplicate. The pH values and tablet residence time in each medium were selected based on the proposed biorelevant dissolution test conditions. […] Medium pH 6.0 was used to simulate the fed state luminal conditions in the ascending colon.

CYP2C19 [10] = conditions: cited from earlier work
[11] = cited from earlier work; remark: listed apart in the source
CYP2C19 [12] = system: CYP2C19; parameters: method as in Ogilvie et al., 2011 [27]; conditions: omeprazole; ref Ogilvie et al., 2011 [27]; cited from earlier work
CYP2C19 [13] = conditions: previous study based on omeprazole enantiomers; cited from earlier work
[14] = parameters: method as in Hassan-Alin et al., 2005 [30]; conditions: geometric mean (95% CI), ref Hassan-Alin et al., 2005 [30], cited from earlier work; for Cmax: read-out: Cmax, observed
CYP3A4 [15] = system: CYP3A4; parameters: method as in PMID 24739523; conditions: omeprazole; average value for CYP2C19 EM/RM/UM phenotypes; cited from earlier work
[16] = omeprazole, cited from earlier work
CYP3A4 [17] = assay: CYP3A4-mediated metabolism (fm, intrinsic clearance); type: in vitro ADME, human; conditions: omeprazole; retrograde calculated from observed Clpo after 20 mg single dose, fa*fg = 1
Text: as §2

[18] = parameters: method as in PMID 11117653; conditions: healthy volunteers; cited from earlier work
[19] = gliclazide model input, ref Grbic et al., 2011 [40]
[20] = gliclazide, ref Chen et al., 2018 [37]
[21] = gliclazide 30 mg MR tablet, single oral, geometric mean (95% CI)
[22] = gliclazide 80 mg IR tablet, single oral, geometric mean (95% CI)
[23] = gliclazide i.v. infusion 30 mg, geometric mean (95% CI)
[24] = omeprazole model input, ref Ogilvie et al., 2011 [27]
[25] = first-order absorption model, ref Ogilvie et al., 2011 [27]

Cc1ccc(S(=O)(=O)NC(=O)NN2CC3CCCC3C2)cc1 (stereo not drawn) [gliclazide]
Odds ratio of hypoglycemia for the loss-of-function CYP2C19*2 allele [1]: 0.50 (0.18–1.40)
Observed gliclazide AUC, fold higher in CYP2C19 PM compared to NM ([2]; ref 11): 3.4 fold
Observed gliclazide AUC, fold higher in CYP2C19 PM compared to NM ([2]; ref 12): 5.1 fold
Log P ([3]; gliclazide model input, ref El-Sabawi, et al., 2014 [45]): 2.04
Compound type [3, 19]: Ampholyte
pKa (first value) [3, 19]: 2.9
pKa (second value) [3, 19]: 5.8
Substrate for the efflux Mrp2 transporter in rats (Mrp2): substrate
Clint CYP2C9 (CYP2C9 [4]): 0.004 µL/min/pmol
Contribution of CYP2C9 to gliclazide metabolism (CYP2C9 [5]): at least 65%
Clint CYP2C19 (CYP2C19 [6]; gliclazide, calculated from microsomal total intrinsic clearance [10], CYP abundances and fm [36]): 0.273 µL/min/pmol
Substrate of hepatic OATP1B1 transporter (OATP1B1): substrate
Km (OATP1B1; [20]): 30.2 µM
OATP1B1 Jmax (OATP1B1; [20]): 12.9 pmol/min/10^6 cells
fu (fraction unbound) [7]: 0.15
Hypoglycemia or other adverse effects in the trial ([8]; 40 mg gliclazide with placebo or 20 mg omeprazole, healthy volunteers): no cases of hypoglycemia or any other adverse effect
Geometric mean ratio of gliclazide AUC0–24, omeprazole phase/placebo phase ([8]; 40 mg gliclazide, 20 mg omeprazole 5 days, 14 healthy volunteers NM/RM/UM, ratio (90% CI)): 1.13 (0.86–1.48)
AUC(0-t) ([8]; omeprazole phase): 3730 ng·h/mL
AUC(0-t) ([8]; placebo phase): 3290 ng·h/mL
Initial gliclazide release rate between media pH 1.6 and pH 3.0 [9]: no difference
Contribution of CYP2C19 to gliclazide metabolism (CYP2C19 [10]; human liver microsomes, CYP selective inhibitors): ≤ 35%
AUC0–72, observed [11, 21]: 14.4 (12.4–16.8) µgh/mL
AUC0–∞, observed [11, 21]: 15.6 (13.5–18.1) µgh/mL
Cmax, observed [11, 21]: 0.71 (0.62–0.82) µg/mL
tmax, observed ([11]; gliclazide 30 mg MR tablet, single oral, median (minimum–maximum)): 7 (4–10) h
AUC0–48, observed [11, 22]: 45.5 (38.9–53.3) µgh/mL
AUC0–∞, observed [11, 22]: 50.9 (42.8–60.5) µgh/mL
Cmax, observed [11, 22]: 3.51 (3.24–3.80) µg/mL
tmax, observed [11, 22]: 3.66 (3.10–4.33) h
AUC0–72, observed [11, 23]: 15.5 (13.0–18.5) µgh/mL
AUC0–∞, observed [11, 23]: 17.2 (14.5–20.3) µgh/mL
Cmax, observed [11, 23]: 1.39 (1.16–1.67) µg/mL
Vss observed in humans in vivo ([11]; gliclazide): 0.19 to 0.46 L/kg

COc1ccc2[nH]c([S+]([O-])Cc3ncc(C)c(OC)c3C)nc2c1 (stereo not drawn) [omeprazole]
Ki (CYP2C19 [12]): 5 µM
Compound type [3, 24]: Ampholyte
pKa (first value) [3, 24]: 4.4
Predicted lowest level of active CYP2C19, previous study (CYP2C19 [13]): 14%
AUC0–∞, observed ([14]; omeprazole 20 mg day 1): 1.04 (0.64–1.72) µM × h
Cmax ([14]; omeprazole 20 mg day 1): 1040 nM
AUC0–∞, observed ([14]; omeprazole 20 mg day 5): 1.63 (0.96–2.78) µM × h
Cmax ([14]; omeprazole 20 mg day 5): 1430 nM
AUC0–∞, observed ([14]; omeprazole 40 mg day 1): 2.44 (1.53–3.91) µM × h
Cmax ([14]; omeprazole 40 mg day 1): 2320 nM
AUC0–∞, observed ([14]; omeprazole 40 mg day 5): 5.79 (3.60–9.33) µM × h
Cmax ([14]; omeprazole 40 mg day 5): 3870 nM
fm CYP3A4 (CYP3A4 [15]): 14%
fa (fraction absorbed) [16, 25]: 1
ka (absorption rate constant) [16, 25]: 6 h⁻¹
Vss ([16]; minimal PBPK model, ref Deng 2016 [29], Wu et al., 2014 [28]): 0.15 L/kg
ClR (renal clearance) ([16]; ref Wu et al., 2014 [28], Feng et al., 2015 [42]): 0.037 L/h
Clint CYP2C19 (CYP2C19 [6]; omeprazole, retrograde calculated from observed Clpo after 20 mg single dose, fa*fg = 1): 75.1 µL/min/pmol
Clint CYP3A4 (CYP3A4 [17]): 0.39 µL/min/pmol
fm CYP2C19 (CYP2C19 [10]; omeprazole, average value for CYP2C19 EM/RM/UM phenotypes): 86%

COc1ccnc(C[S+]([O-])c2nc3ccc(OC(F)F)cc3[nH]2)c1OC (stereo not drawn) [pantoprazole]
Effect of pantoprazole on glibenclamide PK [18]: no effect
